Experimental data from ChEMBL document CHEMBL1142012, “Synthesis and SAR of 4-(3-hydroxyphenylamino)pyrrolo[2,1-f][1,2,4]triazine based VEGFR-2 kinase inhibitors” (Bioorg Med Chem Lett, 2005).

Columns and labels:
[1] = biological target: Vascular endothelial growth factor receptor 2 (Homo sapiens, UniProt P35968); assay: Inhibitory concentration against Vascular endothelial growth factor receptor 2
Cell line [2] = assay: Inhibitory concentration against Human umbilical vein endothelial cells stimulated by VEGF was determined; assay type: functional, cell-based
Homo sapiens = species on record: Homo sapiens; conditions: Liver, Microsome
Cell line [3] = assay: Inhibitory concentration against Human umbilical vein endothelial cells stimulated by VEGF was determined;NA= not active; assay type: functional, cell-based
[4] = Area under the concentration time curve (0-4 hr) value in mouse after 50 mg/kg oral dosage; assay type: ADME, organism-based; design: time < 4 hr, dose 50 mg/kg, route oral; conditions: in vivo
[5] = Maximum plasma concentration in mouse after 50 mg/kg oral dosage; assay type: ADME, organism-based; design: dose 50 mg/kg, route oral
[6] = Glucuronidation in human liver microsomes was determined; assay type: ADME, Microsome

Chain of Vascular endothelial growth factor receptor 2 (P35968 whole entry): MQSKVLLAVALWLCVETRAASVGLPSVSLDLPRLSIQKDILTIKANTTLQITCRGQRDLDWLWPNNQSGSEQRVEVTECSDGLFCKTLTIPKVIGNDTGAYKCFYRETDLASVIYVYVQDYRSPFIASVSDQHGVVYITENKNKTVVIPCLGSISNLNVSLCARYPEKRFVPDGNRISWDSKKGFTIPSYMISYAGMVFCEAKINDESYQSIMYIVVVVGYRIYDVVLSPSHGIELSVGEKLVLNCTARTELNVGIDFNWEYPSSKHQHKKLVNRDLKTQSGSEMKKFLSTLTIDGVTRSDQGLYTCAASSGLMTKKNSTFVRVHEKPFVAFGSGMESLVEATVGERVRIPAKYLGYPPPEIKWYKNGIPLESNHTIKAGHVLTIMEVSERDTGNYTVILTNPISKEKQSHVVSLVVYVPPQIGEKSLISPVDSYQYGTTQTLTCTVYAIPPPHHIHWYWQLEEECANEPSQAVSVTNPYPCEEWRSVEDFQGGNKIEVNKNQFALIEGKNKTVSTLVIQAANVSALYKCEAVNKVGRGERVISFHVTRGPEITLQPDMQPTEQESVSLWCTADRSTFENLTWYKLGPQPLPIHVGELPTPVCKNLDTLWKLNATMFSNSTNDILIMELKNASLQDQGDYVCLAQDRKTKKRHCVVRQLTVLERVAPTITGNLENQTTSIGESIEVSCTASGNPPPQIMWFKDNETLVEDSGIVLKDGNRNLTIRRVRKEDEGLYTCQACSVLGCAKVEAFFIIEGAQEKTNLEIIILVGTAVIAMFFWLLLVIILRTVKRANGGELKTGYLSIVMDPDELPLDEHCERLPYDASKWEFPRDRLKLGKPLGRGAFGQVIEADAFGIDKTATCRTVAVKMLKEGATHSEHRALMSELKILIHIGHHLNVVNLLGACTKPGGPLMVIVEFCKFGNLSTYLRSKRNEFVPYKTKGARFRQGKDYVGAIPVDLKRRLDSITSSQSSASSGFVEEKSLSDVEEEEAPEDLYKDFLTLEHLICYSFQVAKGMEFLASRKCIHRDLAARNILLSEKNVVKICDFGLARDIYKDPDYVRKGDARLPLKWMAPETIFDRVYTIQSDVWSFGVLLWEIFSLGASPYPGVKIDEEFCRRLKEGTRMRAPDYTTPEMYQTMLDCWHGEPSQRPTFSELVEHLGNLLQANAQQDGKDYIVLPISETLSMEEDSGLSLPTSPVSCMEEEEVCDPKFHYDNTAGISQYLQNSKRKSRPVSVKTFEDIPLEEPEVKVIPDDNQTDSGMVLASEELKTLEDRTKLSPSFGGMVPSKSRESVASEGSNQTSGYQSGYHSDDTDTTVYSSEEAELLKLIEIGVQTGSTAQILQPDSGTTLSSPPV

SMILES	IC50 [1] [µM]	IC50 (Cell line [2]) [µM]	Glucuronidation (Homo sapiens) [nmol/min/mg]	also measured
COC(=O)c1cn2ncnc(Nc3ccc(C(C)C)c(O)c3)c2c1C	0.38	–	–	–
COC(=O)c1cn2ncnc(Nc3ccc(C(F)(F)F)c(O)c3)c2c1C	0.37	–	–	–
Cc1ccc(Nc2ncnn3cc(NC(=O)OCCCN4CCCCC4)c(C(C)C)c23)cc1O	0.005	0.001	0.08	–
COC(=O)c1cn2ncnc(Nc3ccc(Br)c(O)c3)c2c1C	0.033	–	–	–
COC(=O)c1cn2ncnc(Nc3ccc(C)c(O)c3)c2c1C	0.01	–	–	–
Cc1ccc(Nc2ncnn3cc(NC(=O)OCCCn4nccn4)c(C(C)C)c23)cc1O	0.007	–	0.9	–
COC(=O)c1cn2ncnc(Nc3ccc(C)c(O)c3)c2c1C(C)(C)C	0.31	–	–	IC50 (Cell line [3]): Not Active
Cc1ccc(Nc2ncnn3cc(C(=O)NCCCN4CCCC4)c(C(C)C)c23)cc1O	0.018	0.008	0.02	AUC(0-t) at 4 h [4]: 0.267 µM·h; Cmax [5]: 166 nM
Cc1ccc(Nc2ncnn3cc(C(=O)NCCCn4nccn4)c(C)c23)cc1O	0.03	0.02	0.21	–
Cc1ccc(Nc2ncnn3cc(OCCCN4CCCCC4)c(C(C)C)c23)cc1O	0.004	0.001	0.03	–
COCCCNC(=O)c1cn2ncnc(Nc3ccc(C)c(O)c3)c2c1C	0.15	–	0.16	–
Cc1ccc(Nc2ncnn3cc(C(=O)NCCCN4CCOCC4)c(C)c23)cc1O	0.052	0.003	0.01	–

The remaining compounds from weak to strong by IC50 [1], led by results:

IC50 [1] [µM]	IC50 (Cell line [2]) [µM]	SMILES	Glucuronidation (Homo sapiens) [nmol/min/mg]	also measured
0.19	–	CCCc1ccc(Nc2ncnn3cc(C(=O)OC)c(C)c23)cc1O	–	–
0.09	0.035	CCCc1c(C(=O)NCCCN2CCCC2)cn2ncnc(Nc3ccc(C)c(O)c3)c12	–	–
0.064	0.04	CCOC(=O)c1cn2ncnc(Nc3ccc(C)c(O)c3)c2c1OCC	–	–
0.061	–	COC(=O)c1cn2ncnc(Nc3cccc(O)c3)c2c1C	–	–
0.055	–	CCc1ccc(Nc2ncnn3cc(C(=O)OC)c(C)c23)cc1O	–	–
0.04	0.01	Cc1ccc(Nc2ncnn3cc(C(=O)NCCCN4CCCC4)c(C)c23)cc1O	–	Glucuronidation [6]: 0.01 nmol/min/mg
0.014	0.004	CCOC(=O)c1cn2ncnc(Nc3ccc(C)c(O)c3)c2c1C(C)C	–	–
0.005	0.005	Cc1ccc(Nc2ncnn3cc(NC(=O)NCCCN4CCCCC4)c(C(C)C)c23)cc1O	0.04	–
0.003	0.006	CCCc1c(C(=O)OCC)cn2ncnc(Nc3ccc(C)c(O)c3)c12	–	–
